Results on 3 compounds are retold here after patent US20250130239A1, “PROTEIN DEGRADER” (University of Dundee, priority 2021, published 2025).

One assay concerns the target T1, Brd3 (Homo sapiens, UniProt Q15059).
T1 construct: endogenous Brd3 and Brd4; endogenous in cells; host or cells: heterozygous BromoTag-Brd2 HEK293 cells
As to the kind of experiment: Off-target degradation of Brd3 (western blot) in BromoTag-Brd2 HEK293 cells. It counts as cell-based. Here is the method: Dose-response Degradation Assays. All dose-response degradation assays were performed on the genotype verified heterozygous BromoTag-Brd2 HEK293 cell line. Heterozygous BromoTag-Brd2 HEK293 cells were plated at a density of 5×10^5 cells per well of a six healthy plate a day before initiation of the titration experiment. PROTAC compounds were dissolved in DMSO at a concentration of 10 mM, from these stock concentrations, PROTAC compounds were diluted to appropriate concentrations using DMSO in the range of 10 μM-1 nM. The compounds were then added to a 2 mL of DMEM (Invitrogen, Carlsebad, CA, USA) supplemented with 10% (v/v) Fetal bovine serum (FBS) (Thermo Fisher, Waltham, MA, USA) and 1% (v/v) penicillin/streptomycin (pen/strep) (#15140122, Thermo Fisher, Waltham, MA, USA) and added to the cells at initiation of the experiment. Control compounds such as MZ1, cis-MZ1 were similarly dissolved in DMSO to the appropriate concentration. […]
(§1) Western Blotting. […] Total protein quantity was determined using the BCA protein assay (#23225, Pierce, Rockford, Illinois). Protein concentration was determined using the BCA assay (ThermoFisher Scientific, 23225). […] All western blots were analysed for band intensities using Image Lab from Bio-Rad (LI-COR, Biosciences). The data extracted from these blots were then plotted and analysed using Prism (v. 8.2.0, GraphPad).
Background: In western blotting, separated proteins are transferred to a membrane and probed.

The target of assay [1] is T2, BromoTag-Brd2 (Homo sapiens, UniProt O60885+P40337, L387A).
T2 construct: comprising residues 368-440 of human Brd4; Brd2 (endogenous protein, fusion partner in the same polypeptide); eGFP-P2A (upstream marker in the knock-in cassette) (N, cleaved yes); expressed in transfected cells; host or cells: HEK293, heterozygous CRISPR knock-in at the endogenous BRD2 locus
As to the kind of experiment: Time-course degradation assay in heterozygous BromoTag-Brd2 HEK293 cells. The settings on record: 500 nM 47, 1 μM 48; over 36 h. It counts as cell-based. As for the experimental part:
Time-course Degradation Assay. Time-course degradation assays using PROTACs AGB1, AGB2, and AGB3 were performed on the genotype verified heterozygous BromoTag-Brd2 HEK293 cell line. Heterozygous BromoTag-Brd2 HEK293 cells were plated at a density of 5×10^5 cells per well of a 6 healthy plate a day prior to initiation of the Timecourse assay. PROTAC's AGB1 & AGB2 were diluted in DMSO to a concentration of 1 mM prior to being further diluted 1:2000 in 2 mL of DMEM to a concentration of 500 nM per timepoint. PROTAC AGB3 was diluted in DMSO to a concentration of 2 mM prior to being further diluted 1:2000 in 2 mL of DMEM to a concentration of 1 μM per timepoint. Timepoint range was between 0-36 h. Treatment was applied in a staggered fashion to enable all timepoints to be harvested at the same time.
Western Blotting. All cells were harvested on ice with RIPA lysis, and extraction buffer (ThermoFisher Scientific, 89901) supplemented with protease inhibitor cocktail (Merck, 11697498001) and Benzonase® Nuclease (Sigma, E1014) before being store at −20° C. prior to use. Total protein quantity was determined using the BCA protein assay (#23225, Pierce, Rockford, Illinois). Protein concentration was determined using the BCA assay (ThermoFisher Scientific, 23225). Samples were then prepared and loaded onto NuPAGE™ 4-12% Bis-Tris Midi gels (ThermoFisher Scientific, WG1403A), followed by the transfer of the proteins onto nitrocellulose membranes (EMD Millipore). The membranes were blocked for 1 h prior to incubation with the primary antibodies using 5% Milk TBST. Membranes were probed for Brd2 (Abcam, Ab139690, 1:1000), Brd3 (Abcam, Ab50818, 1:4000), Brd4 (Abcam, Ab128874, 1:1000) or our polyclonal Brd4^BD2 L387A antibody. […] All western blots were analysed for band intensities using Image Lab from Bio-Rad (LI-COR, Biosciences). The data extracted from these blots were then plotted and analysed using Prism (v. 8.2.0, GraphPad).

The target in another assay is T3, VHL (VCB protein) (Homo sapiens, UniProt P40337).
T3 construct: N-terminally Hiss-tagged VHL (54-213); His6 (N, cleaved yes); made in house; host or cells: E. coli
As to the kind of experiment: Fluorescence polarization competitive binding assay, binary binding. Particulars: compound alone; displacement of HIF-1a peptide probe; read-out: binary affinity to VHL Kd. As for the experimental part: (§2) Protein Expression and Purification. […] The complex was further purified by anion exchange followed by gel filtration chromatography.
(§3) Fluorescence Polarization Binding Assay. […] All components were dissolved from stock solutions using 100 mM Bis-Tris propane, 100 mM NaCl, 1 mM DTT, pH 7.0, to yield a final assay volume of 15 μL. DMSO was added as appropriate to ensure a final concentration of 2% v/v. […] Percentage displacement values were obtained by normalization of controls were plotted against Log[Compound]. IC50 values were determined for each titration using nonlinear regression analysis with Prism (v. 9.1.0, GraphPad). […] Cooperativity values (a) for each PROTAC were calculated using the ratio: α=binary Kd (−bromodomain)/ternary Kd (+bromodomain).
On the technique in general: Polarisation of emitted light reports the rotation of a fluorescent probe.

The target of assay [2] is T4, VHL, compound preincubated with Brd4^BD2 L387A (Homo sapiens, UniProt O60885+P40337, L387A).
T4 construct: N-terminally Hiss-tagged VHL (54-213); N-terminally His6-tagged Brd4-BD2^L387A (333-460) was expressed in E. coli; His6 (N, cleaved yes); made in house; host or cells: E. coli
Briefly: Fluorescence polarization competitive binding assay, ternary complex binding. Particulars: displacement of HIF-1a peptide probe, read-out: ternary binding affinity Kd. Here is the method:
as §2, §3

Assay [3] addresses T2, BromoTag-Brd2. As to the kind of experiment: Dose-response degradation assay (western blot, 6 h) in heterozygous BromoTag-Brd2 HEK293 cells. It counts as cell-based. The settings on record: 6 h; for pDC50: 8-point 10 μM-1 nM, mean (±S.E.) of two repeats. As for the experimental part: Dose-response Degradation Assays. All dose-response degradation assays were performed on the genotype verified heterozygous BromoTag-Brd2 HEK293 cell line. Heterozygous BromoTag-Brd2 HEK293 cells were plated at a density of 5×10^5 cells per well of a six healthy plate a day before initiation of the titration experiment. PROTAC compounds were dissolved in DMSO at a concentration of 10 mM, from these stock concentrations, PROTAC compounds were diluted to appropriate concentrations using DMSO in the range of 10 μM-1 nM. […] Control compounds such as MZ1, cis-MZ1 were similarly dissolved in DMSO to the appropriate concentration. […] Cells were washed twice with PBS before being harvested.
Western Blotting. […] The membranes were blocked for 1 h prior to incubation with the primary antibodies using 5% Milk TBST. […] Following overnight incubation with the primary antibodies at 4° C., the membranes were incubated with secondary antibodies (Anti-rabbit, Abcam AB216773, 1:5000 or anti-mouse, Abcam AB216774, 1:5000) and hFAB™ Rhodamine Anti-Tubulin Antibody (Biorad, 12004165, 1:10000) for one h and then imaged with a Bio-Rad imager (LI-COR Biosciences). All western blots were analysed for band intensities using Image Lab from Bio-Rad (LI-COR, Biosciences). The data extracted from these blots were then plotted and analysed using Prism (v. 8.2.0, GraphPad).

Assay [4] relates to untagged Brd2 and endogenous Brd3 and Brd4. As to the kind of experiment: Off-target degradation of endogenous BET proteins (western blot) in BromoTag-Brd2 HEK293 cells. Format: cell-based, human. Particulars: 1 nM to 10 μM; 6 h. As for the experimental part:
Dose-response Degradation Assays. All dose-response degradation assays were performed on the genotype verified heterozygous BromoTag-Brd2 HEK293 cell line. Heterozygous BromoTag-Brd2 HEK293 cells were plated at a density of 5×10^5 cells per well of a six healthy plate a day before initiation of the titration experiment. PROTAC compounds were dissolved in DMSO at a concentration of 10 mM, from these stock concentrations, PROTAC compounds were diluted to appropriate concentrations using DMSO in the range of 10 μM-1 nM. The compounds were then added to a 2 mL of DMEM (Invitrogen, Carlsebad, CA, USA) supplemented with 10% (v/v) Fetal bovine serum (FBS) (Thermo Fisher, Waltham, MA, USA) and 1% (v/v) penicillin/streptomycin (pen/strep) (#15140122, Thermo Fisher, Waltham, MA, USA) and added to the cells at initiation of the experiment. Control compounds such as MZ1, cis-MZ1 were similarly dissolved in DMSO to the appropriate concentration. All titration experiment were performed for a total of 6 hours prior to being harvested and were kept at 37° C., 5% CO2, and 95% humidity once treatment was applied until right before harvesting. Cells were washed twice with PBS before being harvested.
as §1
Development of a Knock-in Cell Line with BromoTag fused to endogenous Brd2 using CRISPR. […] To this end, the endogenous BET family protein Brd2 was chosen as a model target, due to the availability of well-established antibody for Brd2 detection, and expression of a single protein isoform as well detected band in the western blot (Filippakopoulos, P.; Knapp, S., Nat Rev Drug Discov. 2014, 13 (5), 337-356). […]

In the case of `CC[C@@H](C(=O)OCCOCCCOCC(=O)N[C@H](C(=O)N1C[C@H](O)C[C@H]1C(=O)N[C@@H](C)c1ccc(-c2scnc2C)cc1)C(C)(C)C)[C@@H]1N=C(c2ccc(Cl)cc2)c2c(sc(C)c2C)-n2c(C)nnc21` (single isomer, unassigned) [AGB2 (47)], the “off-target degradation of Brd3” value on Brd3 (at 100-1,000 nM) is reported as “minor off-target degradation”. On BromoTag-Brd2 [1], the “extent of BromoTag-Brd2 degradation in the time course” value is listed as “near complete target degradation”. In addition, the values for the dissociation constant (Kd) (at VHL (VCB protein); in assay [2]) were 45 nM and 12 nM, respectively.

As to `CC[C@@H](C(=O)NCCOCCOCCOCC(=O)N[C@H](C(=O)N1C[C@H](O)C[C@H]1C(=O)NCc1ccc(-c2scnc2C)cc1)C(C)(C)C)[C@@H]1N=C(c2ccc(Cl)cc2)c2c(sc(C)c2C)-n2c(C)nnc21` (single isomer, unassigned) [AGB3 (48)], the DC50 (as a rule, the midpoint of the concentration-degradation curve) at BromoTag-Brd2 [3] (range over the two antibodies) was in the range of 210 to 290 nM. The pDC50 at BromoTag-Brd2 [3] (Ab: Brd4^BD2 L387A, single stereoisomers) was 6.5 ± 0.3; on BromoTag-Brd2 [3] (Ab: BromoTag-Brd2, single stereoisomers) it was 6.7 ± 0.1. For the same compound, the Dmax (as a rule, the greatest extent of degradation seen) at BromoTag-Brd2 [3] (HEK293, Ab: Brd4^BD2 L387A, single stereoisomers) came out at 92%. Besides, the “extent of BromoTag-Brd2 degradation in the time course” value on BromoTag-Brd2 [1] was around 80%. The Kd (commonly the equilibrium constant for the complex coming apart) was determined as 102 nM on VHL (VCB protein) and 9 nM in assay [2].

Take `CC[C@@H](C(=O)OCCOCCCOCC(=O)N[C@H](C(=O)N1C[C@H](O)C[C@H]1C(=O)N[C@@H](C)c1ccc(-c2scnc2C)cc1)C(C)(C)C)[C@@H]1N=C(c2ccc(Cl)cc2)c2c(sc(C)c2C)-n2c(C)nnc21` (relative stereo) [ET-OARV-771 (25), 2-(3-(2-(((S)-1-((2S,4R)-4-hydroxy-2-(((S)-1-(4-(4-methylthiazol-5-yl)phenyl)ethyl)carbamoyl)pyrrolidin-1-yl)-3,3-dimethyl-1-oxobutan-2-yl)amino)-2-oxoethoxy)propoxy)ethyl (R*)-2-((S*)-4-(4-chlorophenyl)-2,3,9-trimethyl-6H-thieno[3,2-f][1,2,4]triazolo[4,3-a][1,4]diazepin-6-yl)butanoate]: the “off-target degradation of untagged Brd2 or the other endogenous BET proteins” value in assay [4] is reported as “no observable off-target degradation”. Moreover, the “off-target degradation of Brd3” value at Brd3 (at 1 μM, 6 h) is recorded as “minor off-target degradation”.
